The numbers were not newly measured in patent publication US20060275209A1, “Methods of [11c]-radiolabelling phenothiazine and phenothiazine-like compounds” (priority 2003, published 2006), which cites them from elsewhere.

Molecules are shown by their SMILES.

For data set [1], the system named is melanoma cells. Particulars: diffuses through the cellular membranes.
The conditions of data set [2]: forms a charge transfer complex with the pigment.

Take `CN(C)c1ccc2nc3ccc(N(C)C)cc3[s+]c2c1.[Cl-]` [Methylene blue, 3,7-bis(dimethylamino)phenothiazine-5-ium chloride]: the “accumulation in melanoma cells” value in data set [1] is reported as “accumulates selectively”. Further, the affinity to melanin result in data set [2] is reported as “very high affinity”.
